The record followed here is ChEMBL document CHEMBL1201862, “PubChem BioAssay data set” (2004).

Calls of active or inactive are those of the source. Where only a bound is given, the exact number is not on record here.

Test [1] is described as follows: Luminescence Cell-Based Dose Response HTS to Identify Activators of Luciferase Translation or Activity in H4 […] Cells. [Related pubchem assays: 1829 (Project Summary), 1814 (Primary HTS)]. In kind it is functional.
Test [2] in a line: inhibitors of firefly luciferase expression or activity, dose response, H4 neuroglioma cells, luminescence (AID 1990). In kind it is functional, cell-based.
Test [3] is described as follows: inhibitors of SNCA 5'UTR-driven reporter translation, confirmation, H4 neuroglioma cells, luminescence (AID 1988). The format is functional, cell-based.
Test [4] is described as follows: Luminescence Cell-Based Dose Response HTS to Identify Inhibitors of 5'UTR Stem-Loop Driven Prion Protein mRNA Translation in H4 Neuroglioblastoma Cells. [Related pubchem assays: 1827 (Project Summary), 1813 (Primary HTS)]. The format is functional.
Test [5] has as its target T1, Carboxy-terminal domain RNA polymerase II polypeptide A small phosphatase 1 (Homo sapiens, UniProt Q9GZU7).
T1 sequence (Q9GZU7 whole entry): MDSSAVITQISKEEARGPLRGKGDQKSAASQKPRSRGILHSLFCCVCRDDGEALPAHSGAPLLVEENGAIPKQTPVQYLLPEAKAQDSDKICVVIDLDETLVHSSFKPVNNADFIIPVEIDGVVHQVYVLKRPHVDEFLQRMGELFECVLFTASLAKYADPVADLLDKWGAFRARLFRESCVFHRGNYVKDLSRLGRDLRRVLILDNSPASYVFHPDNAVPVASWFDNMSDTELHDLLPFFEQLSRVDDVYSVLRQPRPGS
Description: inhibitors of CTDSP1, concentration-response testing, biochemical assay, absorbance-based, actives from ultra-high-throughput screening (AID 540297). In kind it is functional.

In a further test the target is Cytochrome P450 3A4 (Homo sapiens, UniProt P08684).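 Also: CYP3A4 tested as one member of a cytochrome P450 panel screen.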
Test [6] addresses T2, Replicative DNA helicase DnaB (Mycobacterium tuberculosis, UniProt P9WMR3).
T2 sequence (P9WMR3 whole entry): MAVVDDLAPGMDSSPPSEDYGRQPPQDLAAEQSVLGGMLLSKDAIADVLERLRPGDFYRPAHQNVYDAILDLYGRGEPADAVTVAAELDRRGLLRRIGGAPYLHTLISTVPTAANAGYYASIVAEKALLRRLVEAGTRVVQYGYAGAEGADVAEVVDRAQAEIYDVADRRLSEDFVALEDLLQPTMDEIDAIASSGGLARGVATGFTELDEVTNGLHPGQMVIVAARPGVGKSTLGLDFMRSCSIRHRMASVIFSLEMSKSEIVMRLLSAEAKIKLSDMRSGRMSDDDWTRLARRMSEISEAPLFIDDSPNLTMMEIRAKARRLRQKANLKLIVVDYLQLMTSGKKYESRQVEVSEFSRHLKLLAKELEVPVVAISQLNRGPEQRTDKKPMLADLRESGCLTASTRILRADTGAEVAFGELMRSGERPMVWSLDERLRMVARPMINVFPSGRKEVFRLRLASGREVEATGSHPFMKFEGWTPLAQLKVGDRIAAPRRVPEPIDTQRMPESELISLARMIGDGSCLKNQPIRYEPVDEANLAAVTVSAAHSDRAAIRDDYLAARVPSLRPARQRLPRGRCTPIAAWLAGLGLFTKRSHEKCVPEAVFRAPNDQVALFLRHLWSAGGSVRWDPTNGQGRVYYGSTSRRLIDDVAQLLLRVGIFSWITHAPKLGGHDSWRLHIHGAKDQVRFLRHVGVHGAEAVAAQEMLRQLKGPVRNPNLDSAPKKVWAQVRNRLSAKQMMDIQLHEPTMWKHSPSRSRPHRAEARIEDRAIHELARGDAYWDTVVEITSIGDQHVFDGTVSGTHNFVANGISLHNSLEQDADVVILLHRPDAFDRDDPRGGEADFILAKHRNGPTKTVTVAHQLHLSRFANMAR
Briefly: DnaB intein splicing inhibitors, dose response, biochemical, cell-free fluorescence (AID 449749). In kind it is functional.

The target in the next test is T3, Protein RecA (Mycobacterium tuberculosis, UniProt P9WHJ3).
T3 sequence (P9WHJ3 whole entry): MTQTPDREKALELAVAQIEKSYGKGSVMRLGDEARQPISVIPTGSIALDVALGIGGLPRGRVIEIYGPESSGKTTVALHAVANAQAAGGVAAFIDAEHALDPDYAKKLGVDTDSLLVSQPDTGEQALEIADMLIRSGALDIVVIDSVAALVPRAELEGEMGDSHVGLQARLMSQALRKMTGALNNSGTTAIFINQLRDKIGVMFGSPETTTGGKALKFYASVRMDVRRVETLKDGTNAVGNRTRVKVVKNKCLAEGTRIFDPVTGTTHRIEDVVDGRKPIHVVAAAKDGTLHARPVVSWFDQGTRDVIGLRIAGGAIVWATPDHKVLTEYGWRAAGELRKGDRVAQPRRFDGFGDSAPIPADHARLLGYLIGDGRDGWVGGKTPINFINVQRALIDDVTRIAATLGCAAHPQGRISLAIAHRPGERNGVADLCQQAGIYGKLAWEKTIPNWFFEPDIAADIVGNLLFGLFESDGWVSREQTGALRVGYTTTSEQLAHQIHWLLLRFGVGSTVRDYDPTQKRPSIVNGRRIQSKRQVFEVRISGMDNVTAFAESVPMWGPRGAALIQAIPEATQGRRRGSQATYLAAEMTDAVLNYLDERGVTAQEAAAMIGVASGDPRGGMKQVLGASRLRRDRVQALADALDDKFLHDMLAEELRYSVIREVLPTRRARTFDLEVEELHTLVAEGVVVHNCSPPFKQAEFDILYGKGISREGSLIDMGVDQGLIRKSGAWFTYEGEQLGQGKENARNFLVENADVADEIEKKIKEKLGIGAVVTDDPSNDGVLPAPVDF
Briefly: Fluorescence Cell-Free Homogeneous Dose Retest to Identify Inhibitors of RecA-Intein Splicing Activity. [Related pubchem assays (depositor defined):AID2097, AID2223, AID489010, AID492950]. The format is functional.

Another test addresses T4, Protein skinhead-1 (Caenorhabditis elegans, UniProt P34707).
T4 sequence (P34707 whole entry): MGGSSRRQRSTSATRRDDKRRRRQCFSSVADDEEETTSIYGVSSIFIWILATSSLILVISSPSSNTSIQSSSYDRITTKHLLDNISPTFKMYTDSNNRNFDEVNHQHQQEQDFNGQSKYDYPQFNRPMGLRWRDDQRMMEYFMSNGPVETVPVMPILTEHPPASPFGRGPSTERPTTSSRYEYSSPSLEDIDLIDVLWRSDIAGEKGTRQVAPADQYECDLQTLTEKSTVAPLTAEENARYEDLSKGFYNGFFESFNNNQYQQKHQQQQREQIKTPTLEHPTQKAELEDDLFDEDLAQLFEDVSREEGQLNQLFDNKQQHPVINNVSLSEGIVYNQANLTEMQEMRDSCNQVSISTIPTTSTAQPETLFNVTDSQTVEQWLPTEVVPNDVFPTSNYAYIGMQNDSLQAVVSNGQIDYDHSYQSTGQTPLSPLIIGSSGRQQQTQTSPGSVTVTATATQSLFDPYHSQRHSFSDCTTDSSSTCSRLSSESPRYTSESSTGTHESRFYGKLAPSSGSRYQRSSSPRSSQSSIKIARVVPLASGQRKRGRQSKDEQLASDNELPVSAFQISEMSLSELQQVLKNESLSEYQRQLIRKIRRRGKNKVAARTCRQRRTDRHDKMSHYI
In kind it is functional.

For the next test, the target named is Genome polyprotein (dengue virus type 2, UniProt P29990). Briefly: Dengue-2 NS5 methyltransferase inhibitors, primary screen, biochemical, confirmation dose response (AID 588689). The format is functional.
For another test, the target named is Cytochrome P450 2C9 (Homo sapiens, UniProt P11712).
The target of another test is Cytochrome P450 2D6 (Homo sapiens, UniProt P10635).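 Also: CYP2D6 member of a cytochrome P450 panel assay.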
A further test concerns the target T5, Cytochrome P450 1A2 (Homo sapiens, UniProt P05177).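 Also: PubChem cytochrome P450 panel assay, CYP1A2 panel member.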
T5 sequence (P05177 whole entry): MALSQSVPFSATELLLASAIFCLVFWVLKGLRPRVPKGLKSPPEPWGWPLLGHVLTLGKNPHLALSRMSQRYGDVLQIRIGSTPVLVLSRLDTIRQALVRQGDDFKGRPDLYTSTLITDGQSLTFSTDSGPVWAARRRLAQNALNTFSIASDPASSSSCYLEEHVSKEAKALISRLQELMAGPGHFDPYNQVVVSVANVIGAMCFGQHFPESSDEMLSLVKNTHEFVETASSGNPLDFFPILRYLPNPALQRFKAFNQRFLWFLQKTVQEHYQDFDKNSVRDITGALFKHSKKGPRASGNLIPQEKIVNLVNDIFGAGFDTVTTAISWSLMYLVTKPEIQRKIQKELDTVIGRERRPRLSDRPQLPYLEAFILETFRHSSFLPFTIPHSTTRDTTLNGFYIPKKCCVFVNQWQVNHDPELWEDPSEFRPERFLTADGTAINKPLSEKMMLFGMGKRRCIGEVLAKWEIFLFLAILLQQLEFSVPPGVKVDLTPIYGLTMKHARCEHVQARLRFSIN

Cytochrome P450 2C9, sequence (P11712 whole entry): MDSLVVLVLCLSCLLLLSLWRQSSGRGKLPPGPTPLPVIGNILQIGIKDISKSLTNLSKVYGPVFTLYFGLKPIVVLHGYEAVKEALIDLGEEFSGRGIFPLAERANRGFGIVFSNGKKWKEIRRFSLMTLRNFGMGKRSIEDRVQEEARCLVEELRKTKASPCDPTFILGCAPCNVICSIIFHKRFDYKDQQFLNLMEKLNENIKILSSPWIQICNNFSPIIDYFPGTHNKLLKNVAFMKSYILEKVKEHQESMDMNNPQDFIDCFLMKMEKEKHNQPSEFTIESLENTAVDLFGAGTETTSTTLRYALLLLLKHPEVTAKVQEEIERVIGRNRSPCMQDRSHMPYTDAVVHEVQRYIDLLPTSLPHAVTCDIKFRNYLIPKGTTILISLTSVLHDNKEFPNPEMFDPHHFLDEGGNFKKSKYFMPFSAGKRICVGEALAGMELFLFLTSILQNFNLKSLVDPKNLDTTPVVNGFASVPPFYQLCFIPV
Genome polyprotein, sequence (P29990 2492-3391 limits assumed): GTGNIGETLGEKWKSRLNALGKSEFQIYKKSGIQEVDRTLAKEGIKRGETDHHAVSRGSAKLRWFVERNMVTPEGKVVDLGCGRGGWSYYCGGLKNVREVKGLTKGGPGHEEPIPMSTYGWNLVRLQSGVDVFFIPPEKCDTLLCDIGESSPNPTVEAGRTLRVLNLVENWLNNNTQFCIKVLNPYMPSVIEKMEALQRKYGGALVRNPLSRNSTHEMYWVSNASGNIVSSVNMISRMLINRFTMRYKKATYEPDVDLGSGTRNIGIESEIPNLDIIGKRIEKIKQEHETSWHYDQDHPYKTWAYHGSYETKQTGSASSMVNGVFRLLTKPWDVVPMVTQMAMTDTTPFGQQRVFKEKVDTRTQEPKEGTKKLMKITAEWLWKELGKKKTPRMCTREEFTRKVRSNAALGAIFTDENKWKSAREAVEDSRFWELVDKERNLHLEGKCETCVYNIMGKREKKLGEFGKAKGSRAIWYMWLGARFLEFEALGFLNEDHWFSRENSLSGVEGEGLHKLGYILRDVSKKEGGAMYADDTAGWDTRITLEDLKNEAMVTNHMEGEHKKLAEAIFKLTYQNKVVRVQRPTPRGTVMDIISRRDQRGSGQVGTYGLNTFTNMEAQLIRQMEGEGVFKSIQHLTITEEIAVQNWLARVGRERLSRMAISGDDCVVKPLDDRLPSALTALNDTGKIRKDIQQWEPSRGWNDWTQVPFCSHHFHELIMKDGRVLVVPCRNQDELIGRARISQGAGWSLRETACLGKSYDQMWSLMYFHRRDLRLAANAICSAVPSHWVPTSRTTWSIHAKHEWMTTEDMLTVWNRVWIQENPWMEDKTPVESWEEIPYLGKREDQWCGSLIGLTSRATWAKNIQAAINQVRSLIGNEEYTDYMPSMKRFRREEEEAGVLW
Cytochrome P450 2D6, sequence (P10635 whole entry): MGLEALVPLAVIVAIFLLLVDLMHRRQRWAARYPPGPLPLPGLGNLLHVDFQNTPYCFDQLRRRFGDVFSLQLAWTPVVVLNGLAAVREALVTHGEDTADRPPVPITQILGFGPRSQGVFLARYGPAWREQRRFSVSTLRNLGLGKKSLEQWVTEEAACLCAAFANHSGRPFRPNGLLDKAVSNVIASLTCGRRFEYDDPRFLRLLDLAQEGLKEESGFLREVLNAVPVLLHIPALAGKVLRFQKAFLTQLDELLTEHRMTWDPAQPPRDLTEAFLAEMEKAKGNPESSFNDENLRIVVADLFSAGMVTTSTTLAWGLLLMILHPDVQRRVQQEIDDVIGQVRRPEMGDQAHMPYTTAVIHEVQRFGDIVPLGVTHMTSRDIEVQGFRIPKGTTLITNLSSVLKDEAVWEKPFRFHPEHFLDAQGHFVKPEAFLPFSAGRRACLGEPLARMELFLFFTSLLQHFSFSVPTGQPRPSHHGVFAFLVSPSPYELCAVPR
Cytochrome P450 3A4, sequence (P08684 whole entry): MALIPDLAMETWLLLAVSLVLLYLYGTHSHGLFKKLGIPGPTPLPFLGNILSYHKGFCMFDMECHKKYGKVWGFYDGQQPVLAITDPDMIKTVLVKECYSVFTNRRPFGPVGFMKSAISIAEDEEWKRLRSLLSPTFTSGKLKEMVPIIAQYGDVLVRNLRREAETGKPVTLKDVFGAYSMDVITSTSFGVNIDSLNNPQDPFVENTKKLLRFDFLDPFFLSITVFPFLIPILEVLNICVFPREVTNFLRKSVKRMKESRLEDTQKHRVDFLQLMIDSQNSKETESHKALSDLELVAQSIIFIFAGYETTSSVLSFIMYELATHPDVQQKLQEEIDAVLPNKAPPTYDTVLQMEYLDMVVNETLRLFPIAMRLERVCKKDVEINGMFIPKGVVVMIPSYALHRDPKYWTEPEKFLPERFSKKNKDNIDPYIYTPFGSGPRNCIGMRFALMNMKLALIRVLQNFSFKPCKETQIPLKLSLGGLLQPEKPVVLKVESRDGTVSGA

For `CCSc1nn2c(=O)c3ccccc3nc2s1`, the EC50 in test [1] was 0.23 µM (active).

As to `N#Cc1cnn2c1nc(N1CCCCC1)c1ccccc12`, the EC50 was 10.6 µM (active) in test [2], 12.7 µM (active) in test [3] and 11.3 µM (active) in test [4].

As to `CC1(C)C(=O)Nc2ccccc2N1C(=O)COc1ccccc1C#N`, the concentration for half-maximal inhibition (IC50) in [5] was 13.2 µM (active).

Turning to `CC(=O)c1ccc(NC(=O)CN2C(=O)COc3ccc(S(=O)(=O)N4CCCC4)cc32)cc1`, the IC50 in test [5] was 6.65 µM (active).

Take `Clc1nc(Cl)nc(-c2cn(-c3ccccc3)c3ccccc23)n1`: the IC50 in test [5] is 7.98 µM (active).

As to `Cc1cc2c(SCC(=O)Nc3cccc(O)c3)ncnc2s1`, the IC50 in test [5] was 6.88 µM (active).

Turning to `COc1ccc(N2CCN(C(S)=Nc3cc(C)cc(C)c3)CC2)cc1`, the AC50 at Cytochrome P450 3A4 is 2.51 µM (inconclusive). In addition, the EC50 in [2], in test [3] and in [4] was > 120 µM (not active) in each case.

As for `O=C(Nc1ccccc1)c1cc2ccccc2c(=O)s1`, in test [1], the EC50 is 6.73 µM (active).

For `COc1ccc(N2CCN(C(=O)C3CCCN3S(=O)(=O)c3cccc4nsnc34)CC2)cc1` (stereo unspecified), the EC50 in test [2], in [3] and in test [4] was > 120 µM (not active) throughout.

For the molecule `Oc1nncc(NCCc2ccccc2)c1Cl`, the EC50 in [2] is 6.91 µM (active); in [3] it was 14.2 µM (active); in test [4], 25.9 µM (active).

Turning to `O=C1c2ccccc2OC2(C=Cc3ccccc3O2)N1Cc1ccccc1` (stereo unspecified), in test [6], the AC50 is 2.83 µM (active). Further, on Protein RecA, the concentration for a half-maximal effect (EC50) is 166 µM (active). Besides, the IC50 on Protein skinhead-1 was > 100 µM (inactive).

With `O=C(c1ccc(-c2cccc(C(F)(F)F)c2)o1)N1CCOCC1`, at Protein skinhead-1, the IC50 was > 100 µM (inactive).

Regarding `C=C(C)c1cccc(C(C)(C)NC(=O)N2CCN(c3ncccn3)CC2)c1`, at Protein skinhead-1, the IC50 is > 100 µM (inactive).

Regarding `Cn1/c(=N/C(=O)C2=NNC(=O)CC2)sc2ccccc21`, the EC50 in test [2], in [3] and in test [4] was > 120 µM (not active) each time.

Consider `CCc1sc(/C=C(/C#N)C(N)=S)cc1[N+](=O)[O-]`, for which the IC50 at Genome polyprotein is 33.9 µM (active).

As to `OCCN1CCN(CC/C=C2/c3ccccc3CSc3ccccc32)CC1`, the EC50 in test [2], in test [3] and in [4] was > 120 µM (not active) each time.

For the molecule `CC(O)CC(=O)O` (stereo not drawn) [3-HYDROXYBUTYRIC ACID, (+/-)-], on Protein skinhead-1, the IC50 was > 100 µM (inactive).

`O=C(Nc1ccc(Cl)cc1Cl)c1ccc(Br)o1`: the IC50 on Protein skinhead-1 was > 100 µM (inactive).

For `Cc1ccc(C=Cc2ccccn2)cc1`, at Protein skinhead-1, the IC50 was 33.9 µM (active).

As to `CC1CCCC(C)N1C(=O)COC(=O)/C=C/c1ccc(Br)o1` (stereo unspecified), in test [5], the 50% inhibitory concentration (IC50) is 19.1 µM (active).

Consider `CCOC(=O)C(C)C1(O)c2ccccc2-c2ncccc21` (stereo unspecified), for which the IC50 at Protein skinhead-1 was > 100 µM (inactive).

With `O=C(/C=C/c1ccccc1)Nc1ccc(CN2CCOCC2)cc1`, at Protein skinhead-1, the IC50 is 11.4 µM (active).

Take `COc1ccc(OCCn2cc(/C=C(\C#N)C(=O)NCc3ccco3)c3ccccc32)cc1`: the EC50 was 16.1 µM (active) in [2], 13.3 µM (active) in test [3] and 27.8 µM (active) in test [4].

As to `Cc1cc(N)ccc1-n1nc2ccccc2n1`, the EC50 in [2] is 22.4 µM (active); in test [3], 35.7 µM (active); in test [4], 36.4 µM (active).

For `O=C1CS/C(=C\[N+](=O)[O-])N1c1ccc(OC(F)(F)F)cc1`, the concentration at half-maximal activity (AC50) in test [6] is 219 µM (active); at Cytochrome P450 2C9 it was 15.8 µM (inconclusive); on Cytochrome P450 2D6 it was 15.8 µM (inconclusive); on Cytochrome P450 1A2, 6.31 µM (inconclusive). Also, the concentration giving a half-maximal response (EC50) on Protein RecA is 10.9 µM (active).

Regarding `Cc1ccccc1NC(=O)C(=O)NNC(=O)COc1ccc2ccccc2c1`, in test [5], the 50% inhibitory concentration (IC50) was 13.1 µM (active).

In the case of `O=C1c2ccccc2C(=O)c2c(NCc3cccnc3)cccc21`, at Protein skinhead-1, the IC50 was > 100 µM (inactive).

For `COc1cc(/C=C2/C(=O)NN(c3ccc(C)c(Cl)c3)C2=O)cc([N+](=O)[O-])c1O`, the 50% inhibitory concentration (IC50) in [5] is 6.75 µM (active).
